Read-outs that look alike come from different tables or passages of the source.
Columns and labels:
OVCAR-4 = assay: NCI-60 SRB screen: ovarian cancer OVCAR-4; type: cell-based; details: Homo sapiens; OVCAR-4; five concentrations, 48 h, SRB; read-out: GI50
M14 = assay: NCI-60 SRB screen: melanoma M14; type: cell-based, human; details: M14; for GI50: Homo sapiens, five concentrations, 48 h, SRB, read-out: GI50; for Percentage Cell Growth: single dose 10 µM
MCF7 = assay: NCI-60 SRB screen: breast cancer MCF7; type: cell-based; details: Homo sapiens, 48 h, MCF7; for activity at 10 µM: single dose 10 µM, read-out: Percentage Cell Growth; for GI50: five concentrations, SRB, read-out: GI50
786-0 = assay: NCI-60 SRB screen: renal cancer 786-0; type: cell-based, human; details: 786-0; for Percentage Cell Growth: single dose 10 µM; for GI50: Homo sapiens, five concentrations, 48 h, SRB, read-out: GI50
BT-549 = assay: NCI-60 SRB screen: breast cancer BT-549; type: cell-based, human; details: BT-549; for Percentage Cell Growth: single dose 10 µM; for GI50: Homo sapiens, five concentrations, 48 h, SRB, read-out: GI50
SK-MEL-2 = assay: NCI-60 SRB screen: melanoma SK-MEL-2; type: cell-based, human; details: SK-MEL-2; for GI50: Homo sapiens, five concentrations, 48 h, SRB, read-out: GI50; for Percentage Cell Growth: single dose 10 µM
SNB-19 = assay: NCI-60 SRB screen: CNS cancer SNB-19; type: cell-based, human; details: SNB-19; for GI50: Homo sapiens, five concentrations, 48 h, SRB, read-out: GI50; for Percentage Cell Growth: single dose 10 µM
COLO 205 = assay: NCI-60 SRB screen: colon cancer COLO 205; type: cell-based, human; details: COLO 205; for Percentage Cell Growth: single dose 10 µM; for GI50: Homo sapiens, five concentrations, 48 h, SRB, read-out: GI50
[1] = tested on: 60 human tumor cell lines; assay: cells
SK-OV-3 = assay: NCI-60 SRB screen: ovarian cancer SK-OV-3; type: cell-based, human; details: SK-OV-3; for GI50: Homo sapiens, five concentrations, 48 h, SRB, read-out: GI50; for Percentage Cell Growth: single dose 10 µM
SW-620 = assay: NCI-60 SRB screen: colon cancer SW-620; type: cell-based; details: Homo sapiens, 48 h, SW-620; for activity at 10 µM: single dose 10 µM, read-out: Percentage Cell Growth; for GI50: five concentrations, SRB, read-out: GI50
SN12C = assay: NCI-60 SRB screen: renal cancer SN12C; type: cell-based, human; details: for GI50: Homo sapiens, five concentrations, 48 h, SRB, read-out: GI50; for Percentage Cell Growth: single dose 10 µM
HCT-116 = assay: NCI-60 SRB screen: colon cancer HCT-116; type: cell-based; details: Homo sapiens, 48 h, HCT-116; for activity at 10 µM: single dose 10 µM, read-out: Percentage Cell Growth; for GI50: five concentrations, SRB, read-out: GI50
LOX IMVI = assay: NCI-60 SRB screen: melanoma LOX IMVI; type: cell-based, human; details: for GI50: Homo sapiens, five concentrations, 48 h, SRB, read-out: GI50; for Percentage Cell Growth: single dose 10 µM
Leukemia subpanel = assay: NCI-60 screen, subpanel Leukemia
HCT-15 = assay: NCI-60 SRB screen: colon cancer HCT-15; type: cell-based, human; details: HCT-15; for Percentage Cell Growth: single dose 10 µM; for GI50: Homo sapiens, five concentrations, 48 h, SRB, read-out: GI50
Prostate cancer subpanel = assay: NCI-60 screen, subpanel Prostate cancer
NCI-H522 = assay: NCI-60 SRB screen: non-small cell lung cancer NCI-H522; type: cell-based, human; details: NCI-H522; for GI50: Homo sapiens, five concentrations, 48 h, SRB, read-out: GI50; for Percentage Cell Growth: single dose 10 µM
Colon Cancer subpanel = assay: NCI-60 screen, subpanel Colon Cancer
SR = assay: NCI-60 SRB screen: leukemia SR; type: cell-based; details: Homo sapiens, 48 h; for activity at 10 µM: single dose 10 µM, read-out: Percentage Cell Growth; for GI50: five concentrations, SRB, read-out: GI50
A498 = assay: NCI-60 SRB screen: renal cancer A498; type: cell-based, human; details: A498; for Percentage Cell Growth: single dose 10 µM; for GI50: Homo sapiens, five concentrations, 48 h, SRB, read-out: GI50
NCI-H226 = assay: NCI-60 SRB screen: non-small cell lung cancer NCI-H226; type: cell-based, human; details: NCI-H226; for GI50: Homo sapiens, five concentrations, 48 h, SRB, read-out: GI50; for Percentage Cell Growth: single dose 10 µM
Melanoma subpanel = assay: NCI-60 screen, subpanel Melanoma
HL-60(TB) = assay: NCI-60 SRB screen: leukemia HL-60(TB); type: cell-based; details: Homo sapiens, 48 h, HL-60(TB); for activity at 10 µM: single dose 10 µM, read-out: Percentage Cell Growth; for GI50: five concentrations, SRB, read-out: GI50
Breast cancer subpanel = assay: NCI-60 screen, subpanel Breast cancer
UACC-257 = assay: NCI-60 SRB screen: melanoma UACC-257; type: cell-based, human; details: UACC-257; for GI50: Homo sapiens, five concentrations, 48 h, SRB, read-out: GI50; for Percentage Cell Growth: single dose 10 µM
MDA-MB-468 = assay: NCI-60 SRB screen: breast cancer MDA-MB-468; type: cell-based, human; details: for GI50: Homo sapiens, five concentrations, 48 h, SRB, read-out: GI50; for Percentage Cell Growth: single dose 10 µM
PC-3 = assay: NCI-60 SRB screen: prostate cancer PC-3; type: cell-based, human; details: PC-3; for GI50: Homo sapiens, five concentrations, 48 h, SRB, read-out: GI50; for Percentage Cell Growth: single dose 10 µM
NCI/ADR-RES = assay: NCI-60 SRB screen: ovarian cancer NCI/ADR-RES; type: cell-based, human; details: for GI50: Homo sapiens, five concentrations, 48 h, SRB, read-out: GI50; for Percentage Cell Growth: single dose 10 µM
UACC-62 = assay: NCI-60 SRB screen: melanoma UACC-62; type: cell-based, human; details: UACC-62; for GI50: Homo sapiens, five concentrations, 48 h, SRB, read-out: GI50; for Percentage Cell Growth: single dose 10 µM
SK-MEL-28 = assay: NCI-60 SRB screen: melanoma SK-MEL-28; type: cell-based, human; details: SK-MEL-28; for GI50: Homo sapiens, five concentrations, 48 h, SRB, read-out: GI50; for Percentage Cell Growth: single dose 10 µM
UO-31 = assay: NCI-60 SRB screen: renal cancer UO-31; type: cell-based, human; details: UO-31; for GI50: Homo sapiens, five concentrations, 48 h, SRB, read-out: GI50; for Percentage Cell Growth: single dose 10 µM
[2] = tested on: 60 human tumor cell lines; details: single dose 10 µM; for cancer cell lethality, range of percentage growth: cell lines with negative growth; for cases of cancer cell lethality: number of cell lines
CNS cancer subpanel = assay: NCI-60 screen, subpanel CNS cancer
[3] = read-out: GI50 ranges against all panels of NCI60
[4] = read-out: MID a, average sensitivity of all cell line (GI50-MID)

## C=C(C)[C@@H]1CC[C@]2(C(=O)NCCNCCNCCN)CC[C@]3(C)[C@H](CC[C@@H]4[C@@]5(C)CC[C@H](O)C(C)(C)[C@@H]5CC[C@]43C)[C@@H]12 [Compound 6]
OVCAR-4
  GI50: 14.1 µM
M14
  GI50: 11 µM
  Percentage Cell Growth: −30.98%
MCF7
  activity at 10 µM: -60.5%
  GI50: 13.2 µM
786-0
  Percentage Cell Growth: −83.51%
  GI50: 12.4 µM
BT-549
  Percentage Cell Growth: −51.94%
  GI50: 15 µM
SK-MEL-2
  GI50: 16.8 µM
  Percentage Cell Growth: −65.39%
SNB-19
  GI50: 12.9 µM
  Percentage Cell Growth: −74.52%
COLO 205
  Percentage Cell Growth: −19.47%
  GI50: 15.9 µM
[1]; [3]
  GI50: 2.95 to 20.1 µM
[1]; [4]
  GI50: 12.2 µM
SK-OV-3
  GI50: 17.5 µM
  Percentage Cell Growth: −14.17%
SW-620
  activity at 10 µM: -86.7%
  GI50: 14.7 µM
SN12C
  GI50: 13.5 µM
  Percentage Cell Growth: −53.68%
HCT-116
  activity at 10 µM: -26.5%
  GI50: 4.4 µM
LOX IMVI
  GI50: 14.9 µM
  Percentage Cell Growth: −41.03%
Leukemia subpanel
  MID b, average sensitivity of all cell line of particular subpanel: 6.64 µM
  Selectivity, ratio MID a: MID b: 1.83
HCT-15
  Percentage Cell Growth: −24.81%
  GI50: 11.5 µM
Prostate cancer subpanel
  MID b, average sensitivity of all cell line of particular subpanel: 8.53 µM
  Selectivity, ratio MID a: MID b: 1.42
NCI-H522
  GI50: 10.3 µM
  Percentage Cell Growth: −57.83%
Colon Cancer subpanel
  MID b, average sensitivity of all cell line of particular subpanel: 11.72 µM
  Selectivity, ratio MID a: MID b: 1.04
SR
  activity at 10 µM: -4.72%
  GI50: 6.76 µM
A498
  Percentage Cell Growth: −32.64%
  GI50: 19.6 µM
NCI-H226
  GI50: 15.5 µM
  Percentage Cell Growth: −23.56%
Melanoma subpanel
  MID b, average sensitivity of all cell line of particular subpanel: 13.58 µM
  Selectivity, ratio MID a: MID b: 0.89
HL-60(TB)
  activity at 10 µM: -24%
  GI50: 7.33 µM
Breast cancer subpanel
  MID b, average sensitivity of all cell line of particular subpanel: 13.86 µM
  Selectivity, ratio MID a: MID b: 0.88
UACC-257
  GI50: 15.1 µM
  Percentage Cell Growth: −39.58%
MDA-MB-468
  GI50: 8.88 µM
  Percentage Cell Growth: −48.60%
PC-3
  GI50: 2.95 µM
  Percentage Cell Growth: 1.07%
NCI/ADR-RES
  GI50: 18.9 µM
  Percentage Cell Growth: −13.05%
UACC-62
  GI50: 9.29 µM
  Percentage Cell Growth: −100.00%
SK-MEL-28
  GI50: 16 µM
  Percentage Cell Growth: −98.68%
UO-31
  GI50: 11.7 µM
  Percentage Cell Growth: −100.00%
[2]
  cancer cell lethality, range of percentage growth: −4.72% to −100%
  cases of cancer cell lethality: 57
CNS cancer subpanel
  MID b, average sensitivity of all cell line of particular subpanel: 12.52 µM
  Selectivity, ratio MID a: MID b: 0.97

## C=C(C)[C@@H]1CC[C@]2(C(=O)OC)CC[C@]3(C)[C@H](CC[C@@H]4[C@@]5(C)CCC(=NOCCC(=NOCCC#N)NCCC#N)C(C)(C)[C@@H]5CC[C@]43C)[C@@H]12 [Compound 21]
OVCAR-4
  GI50: 12.3 µM
M14
  GI50: 11.9 µM
  Percentage Cell Growth: 26.57%
MCF7
  activity at 10 µM: 12.4%
  GI50: 3.67 µM
786-0
  Percentage Cell Growth: −11.47%
  GI50: 6.42 µM
BT-549
  Percentage Cell Growth: 4.40%
  GI50: 11.3 µM
SK-MEL-2
  GI50: 13.8 µM
  Percentage Cell Growth: 36.23%
SNB-19
  GI50: 12.6 µM
  Percentage Cell Growth: 28.93%
COLO 205
  Percentage Cell Growth: 17.60%
  GI50: 9.02 µM
[1]; [3]
  GI50: 2.02 to 50 µM
[1]; [4]
  GI50: 10.2 µM
SK-OV-3
  GI50: 10.8 µM
  Percentage Cell Growth: 34.60%
SW-620
  activity at 10 µM: 22%
  GI50: 4.45 µM
SN12C
  GI50: 7.28 µM
  Percentage Cell Growth: −71.91%
HCT-116
  activity at 10 µM: 4.16%
  GI50: 2.89 µM
LOX IMVI
  GI50: 4.32 µM
  Percentage Cell Growth: 14.56%
Leukemia subpanel
  MID b, average sensitivity of all cell line of particular subpanel: 4.90 µM
  Selectivity, ratio MID a: MID b: 2.09
HCT-15
  Percentage Cell Growth: 34.28%
  GI50: 5.77 µM
Prostate cancer subpanel
  MID b, average sensitivity of all cell line of particular subpanel: 7.83 µM
  Selectivity, ratio MID a: MID b: 1.31
NCI-H522
  GI50: 8.34 µM
  Percentage Cell Growth: 13.36%
Colon Cancer subpanel
  MID b, average sensitivity of all cell line of particular subpanel: 7.42 µM
  Selectivity, ratio MID a: MID b: 1.38
SR
  activity at 10 µM: 1.86%
  GI50: 2.87 µM
A498
  Percentage Cell Growth: −0.38%
  GI50: 21.7 µM
NCI-H226
  GI50: 5.43 µM
  Percentage Cell Growth: 2.42%
Melanoma subpanel
  MID b, average sensitivity of all cell line of particular subpanel: 8.81 µM
  Selectivity, ratio MID a: MID b: 1.16
HL-60(TB)
  activity at 10 µM: 0.9%
  GI50: 5.18 µM
Breast cancer subpanel
  MID b, average sensitivity of all cell line of particular subpanel: 10.16 µM
  Selectivity, ratio MID a: MID b: 1.00
UACC-257
  GI50: 5.35 µM
  Percentage Cell Growth: 8.82%
MDA-MB-468
  GI50: 2.02 µM
  Percentage Cell Growth: 4.41%
PC-3
  GI50: 2.26 µM
  Percentage Cell Growth: 4.49%
NCI/ADR-RES
  GI50: 13.5 µM
  Percentage Cell Growth: 17.06%
UACC-62
  GI50: 2.32 µM
  Percentage Cell Growth: −25.76%
SK-MEL-28
  GI50: 17.1 µM
  Percentage Cell Growth: 29.25%
UO-31
  GI50: 15.6 µM
  Percentage Cell Growth: 19.03%
[2]
  cancer cell lethality, range of percentage growth: −0.38% to −84.68%
  cases of cancer cell lethality: 11
CNS cancer subpanel
  MID b, average sensitivity of all cell line of particular subpanel: 15.32 µM
  Selectivity, ratio MID a: MID b: 0.67

— article PMC7587962, “Evaluation of Cytotoxicity and α-Glucosidase Inhibitory Activity of Amide and Polyamino-Derivatives of Lupane Triterpenoids” (Molecules, 2020)
